How the values were obtained:
[1] = tested on: TNSALP-null (Akp2^−/−) mice, in vivo model of bone disease (WT, Het, KO); assay: MicroCT of femur cortical bone (Example 2); details: for Normalized bone area-cortical bone volume fraction: FIG. 17
Description: (§1) TNSALP-null (Akp2^−/−) mice served as an in vivo model of bone disease to analyze the effects of the iminosugar, Miglustat.
(§2) Mice were obtained, bred and genotyped as described above. Five mice of each genotype (Wild-type (WT), heterozygous (Het), and homozygous (KO)) were included in each treatment group (i.p. administration of PBS, 400 mg/kg Miglustat, and 1200 mg/kg Miglustat as described above). A total of 44 mice were analyzed (1 Akp2^−/− homozygous mouse was omitted in the PBS group). Mice were scanned using microCT and analyzed as described above. Cortical bone in the middle 20% of bone length from trochanter to distal condyles in the femur was scanned and cortical thickness and bone mineral density were obtained. Cortical thickness (Ct.Th, μm) was used as an indication of average thickness of cortical bone. Trabecular bone of the final 625 μm before the femoral growth plate was scanned.
As depicted in FIG. 14, Miglustat improved cortical thickness in heterozygous mice at 400 mg/kg. […] Cortical bone area (Ct.Ar, mm^2) was determined by dividing cortical volume by the number of slices X slice thickness. As depicted in FIG. 16, cortical bone area increased in Wild-type (WT) and Heterozygotes (Het) administered 400 mg/kg Miglustat. […] In Homozygotes administered 1,200 mg/kg normalized bone area-cortical bone volume fraction decreased.
The attenuation depended on physical density and electron density of bone. As depicted in FIG. 18, high doses of Miglustat improved tissue mineral density in Heterozygotes.

[2] = tested on: TNSALP-null (Akp2^−/−) mice (WT, KO); assay: MicroCT of trabecular bone in the lumbar vertebrae (Example 2); type: in vivo
Description: as §1, §2
In addition to microCT analysis of femurs, microCT analysis was performed on trabecular bone in the lumbar vertebrae. […] Bone volume fraction of vertebrae is the ratio of the segmented bone volume to the total volume of the region of interest.
As depicted in FIG. 30, trabecular thickness (Tb.Th, mm) increased at 400 mg/kg of Miglustat. The profile of trabecular thickness in spine without treatment is different than femoral trabecular thickness. Trabecular thickness is the mean thickness or trabeculae assessed using direct 3D methods described above.
The profile of trabecular separation in spine is different than in femoral. Trabecular separation is the mean distance between trabeculae assessed using direct 3D methods described above.
The profile and baseline number of trabeculae in spine was different than in femoral. Trabecular number is the measure of the average number of trabeculae per unit length.
As depicted in FIG. 33, structure model index decreased in homozygote mice treated with Miglustat. […] As discussed previously, SMI is an indicator of the structure of the trabeculae. SMI will be zero for parallel plates and 3 for cylindrical rods.
As depicted in FIG. 34, the connectivity density increased after treatment of homozygotes with high doses of Miglustat. As described above, connectivity density is a measure of the degree of connectivity of trabeculae normalized by total volume.
As depicted in FIG. 35, the degree of anisotropy increased with Miglustat meaning that treatment affected the orientation of trabeculae in the bone. Degree of anisotropy defines the direction and magnitude of the preferred orientation of trabeculae and uses the ratio between the maximum and minimum radii of the mean intercept length ellipsoid.

[3] = tested on: TNSALP-null (Akp2^−/−) mice (WT, Het, KO); assay: X-Rays of femurs (Example 2); type: in vivo; details: 400 and 1200 mg/kg Miglustat, FIGS. 13A-13I
Description: FIGS. 13A-13I are X-Rays of femurs from Wild-type mice administered PBS (WT-PBS; FIG. 13A), Heterozygous mice administered PBS (Het-PBS; FIG. 13B), Homozygous mice administered PBS (KO-PBS; FIG. 13C), Wild-type mice administered 400 mg/kg Miglustat (WT-400 mg/kg; FIG. 13D), Heterozygous mice administered 400 mg/kg Miglustat (Het-400 mg/kg; FIG. 13E), Homozygous mice administered 400 mg/kg Miglustat (KO-400 mg/kg; FIG. 13F), Wild-type mice administered 1200 mg/kg Miglustat (WT-1200 mg/kg; FIG. 13G), Heterozygous mice administered […] Miglustat (Het-1200 mg/kg; FIG. 13H), Homozygous mice administered […] Miglustat (KO-1200 mg/kg; FIG. 13I) showing increased bone at primary ossification centers (arrowheads).
Full-body ventral and side-view x-rays were taken after euthanizing the mice. The left anatomical legs were dissected to obtain the femoral bones. Femurs were then frozen before being placed in 10% formalin the day prior to microCT scanning. […]
Mice were obtained, bred and genotyped as described above. […] A total of 44 mice were analyzed (1 Akp2^−/− homozygous mouse was omitted in the PBS group). Mice were scanned using microCT and analyzed as described above. […]

patients with Type 1 GD = details: cited from earlier work

## CCCCN1C[C@H](O)[C@@H](O)[C@H](O)[C@H]1CO [Miglustat, (2R,3R,4R,5S)-1-butyl-2-(hydroxymethyl)piperidine-3,4,5-triol]
[1]; Heterozygotes, 400 mg/kg, FIG. 15
  Total cross sectional area inside the periosteal envelope (Tt.Ar): slight increase
[1]; Heterozygotes, high doses, FIG. 18
  Tissue mineral density: improved
[1]; Homozygotes, 1,200 mg/kg
  Normalized bone area-cortical bone volume fraction: decreased
[1]; Wild-type (WT) and Heterozygotes (Het), 400 mg/kg, FIG. 16
  Cortical bone area (Ct.Ar): increased
[1]; Wild-type and Heterozygotes
  Normalized bone area-cortical bone volume fraction: did not have an effect
[1]; heterozygous mice, 400 mg/kg, FIG. 14
  Cortical thickness (Ct.Th): improved
[2]; 400 mg/kg, FIG. 30
  Trabecular thickness (Tb.Th), lumbar vertebrae: increased
[2]; FIG. 31
  Trabecular separation (Tb.Sp), lumbar vertebrae: increased proportional to dose
[2]; FIG. 32
  Trabecular number (Tb.N), lumbar vertebrae: did not change significantly
[2]; FIG. 35
  Degree of anisotropy (DA), lumbar vertebrae: increased
[2]; homozygote mice, FIG. 33
  Structure model index (SMI), lumbar vertebrae: decreased
[2]; homozygotes, high doses, FIG. 34
  Connectivity density (Conn. D), lumbar vertebrae: increased
[2]; homozygotes, FIG. 29
  Overall bone volume (bone volume fraction), lumbar vertebrae: not significantly increased
[3]
  Bone at primary ossification centers (X-Rays of femurs): increased
Patients with Type 1 GD
  BMD: increased
  Bone pain: alleviated

Source: patent US20180296542A1, “IMINOSUGARS FOR IMPROVING BONE MINERAL DENSITY IN BONE DISEASE” (Saint Louis University, priority 2015, published 2018)
